According to PMC4447944 (The Journal of Biological Chemistry, 2015):

Key:
hCLK2 = biological target: T1, hCLK2 (Homo sapiens, UniProt P49760); assay: KINOMEscan; assay type: binding
T1 construct: purchased DiscoverX

hSRMS = biological target: T2, hSRMS (Homo sapiens, UniProt Q9H3Y6); assay: KINOMEscan; assay type: binding
T2 construct: purchased DiscoverX (KINOMEscan platform)

hMAST1 = biological target: T3, hMAST1 (Homo sapiens, UniProt Q9Y2H9); assay: KINOMEscan; assay type: binding
T3 construct: purchased DiscoverX

hRIOK3 = biological target: T4, hRIOK3 (Homo sapiens, UniProt O14730); assay: KINOMEscan; assay type: binding
T4 construct: purchased DiscoverX (KINOMEscan platform)

hD1 = hD1 (Homo sapiens, UniProt P21728); assay: cAMP Agonist (Eurofins-CEREP); settings: @ 10 μM
hD1, sequence (P21728 whole entry): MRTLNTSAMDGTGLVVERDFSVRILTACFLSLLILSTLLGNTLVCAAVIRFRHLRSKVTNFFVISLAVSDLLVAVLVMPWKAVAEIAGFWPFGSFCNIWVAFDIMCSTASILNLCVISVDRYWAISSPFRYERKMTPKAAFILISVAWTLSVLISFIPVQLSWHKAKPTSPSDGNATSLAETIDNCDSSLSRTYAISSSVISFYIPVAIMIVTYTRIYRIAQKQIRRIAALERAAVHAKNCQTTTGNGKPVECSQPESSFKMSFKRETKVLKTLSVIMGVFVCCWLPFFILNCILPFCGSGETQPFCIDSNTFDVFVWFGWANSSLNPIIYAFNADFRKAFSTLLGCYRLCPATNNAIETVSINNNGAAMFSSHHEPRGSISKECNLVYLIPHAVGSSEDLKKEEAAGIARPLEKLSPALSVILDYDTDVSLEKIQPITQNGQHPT

hRET = biological target: T5, hRET (Homo sapiens, UniProt P07949); assay: KINOMEscan; assay type: binding
T5 construct: purchased DiscoverX (KINOMEscan platform)
T5 sequence (P07949 29-1114): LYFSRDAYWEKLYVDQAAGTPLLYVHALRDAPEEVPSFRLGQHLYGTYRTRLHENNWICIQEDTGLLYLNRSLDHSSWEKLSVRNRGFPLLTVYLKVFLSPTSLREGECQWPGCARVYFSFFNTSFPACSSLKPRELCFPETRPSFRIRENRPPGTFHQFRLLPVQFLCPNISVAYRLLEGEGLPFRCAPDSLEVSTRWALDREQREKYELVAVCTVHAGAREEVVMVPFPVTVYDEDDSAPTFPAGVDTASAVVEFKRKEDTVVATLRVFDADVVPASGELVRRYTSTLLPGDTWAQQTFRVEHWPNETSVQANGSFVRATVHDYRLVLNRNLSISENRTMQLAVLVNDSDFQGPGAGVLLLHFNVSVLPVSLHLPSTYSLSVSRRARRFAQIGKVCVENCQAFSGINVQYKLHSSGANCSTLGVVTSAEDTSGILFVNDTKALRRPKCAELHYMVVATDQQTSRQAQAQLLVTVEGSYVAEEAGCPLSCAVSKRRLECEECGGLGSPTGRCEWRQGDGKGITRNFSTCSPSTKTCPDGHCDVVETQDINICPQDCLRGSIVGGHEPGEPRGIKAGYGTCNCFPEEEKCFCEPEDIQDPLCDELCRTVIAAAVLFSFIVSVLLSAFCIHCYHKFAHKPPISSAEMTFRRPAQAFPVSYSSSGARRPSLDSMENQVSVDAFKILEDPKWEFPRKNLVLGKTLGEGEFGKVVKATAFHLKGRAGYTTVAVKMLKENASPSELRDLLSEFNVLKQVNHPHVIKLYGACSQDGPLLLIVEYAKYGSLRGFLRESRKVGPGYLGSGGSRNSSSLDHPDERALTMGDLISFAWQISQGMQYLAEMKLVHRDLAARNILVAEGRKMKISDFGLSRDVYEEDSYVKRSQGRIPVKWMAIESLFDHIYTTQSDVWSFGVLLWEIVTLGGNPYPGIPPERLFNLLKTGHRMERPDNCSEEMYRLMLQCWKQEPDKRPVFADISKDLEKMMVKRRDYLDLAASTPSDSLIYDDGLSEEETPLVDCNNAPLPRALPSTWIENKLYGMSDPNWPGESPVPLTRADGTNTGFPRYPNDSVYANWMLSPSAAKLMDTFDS

hSLK = biological target: T6, hSLK (Homo sapiens, UniProt Q9H2G2); assay: KINOMEscan; assay type: binding
T6 construct: purchased DiscoverX (KINOMEscan platform)

hSRPK2 = biological target: T7, hSRPK2 (Homo sapiens, UniProt P78362); assay: KINOMEscan; assay type: binding
T7 construct: purchased DiscoverX (KINOMEscan platform)

hADORA3 = biological target: T8, hADORA3 (Homo sapiens, UniProt P0DMS8); assay: β-arrestin Antagonist (Eurofins-CEREP); settings: read-out: % Effect, Inhibition
T8 sequence (P0DMS8 1-318): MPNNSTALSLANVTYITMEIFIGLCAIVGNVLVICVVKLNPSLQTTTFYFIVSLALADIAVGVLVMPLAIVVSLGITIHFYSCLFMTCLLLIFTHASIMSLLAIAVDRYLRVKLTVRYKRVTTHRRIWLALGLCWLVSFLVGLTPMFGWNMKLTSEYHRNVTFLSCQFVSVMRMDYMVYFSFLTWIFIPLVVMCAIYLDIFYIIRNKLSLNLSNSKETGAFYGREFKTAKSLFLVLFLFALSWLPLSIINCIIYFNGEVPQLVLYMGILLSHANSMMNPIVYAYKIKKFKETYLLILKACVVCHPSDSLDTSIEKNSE

hCSNK2A1 = biological target: T9, hCSNK2A1 (Homo sapiens, UniProt P68400); assay: KINOMEscan; assay type: binding
T9 construct: purchased DiscoverX (KINOMEscan platform)

hSGK2 = biological target: T10, hSGK2 (Homo sapiens, UniProt Q9HBY8); assay: KINOMEscan; assay type: binding
T10 construct: purchased DiscoverX (KINOMEscan platform)

hKIT(V559D,T670I) = biological target: T11, hKIT(V559D,T670I) (Homo sapiens, UniProt P10721, T670I/V559D); assay: KINOMEscan; assay type: binding
T11 construct: purchased DiscoverX (KINOMEscan platform)

[1] = tested on: SMYD2-mediated methylation of p53 Lys370; assay: Western blot for p53 Lys370me1, HEK293 cells co-transfected with FLAG-SMYD2 and FLAG-p53; assay type: cell-based; settings: Homo sapiens, 0–2.5 μM, 28 h, read-out: IC50, decrease in p53 Lys370me1
Description: Cell lysates were subject to 10% SDS-PAGE and transferred to a PVDF membrane. Each membrane was blocked in Odyssey Blocking Buffer (LI-COR Biosciences) and incubated with monoclonal anti-p53 (D01) antibody (Abcam, ab1101) or rabbit anti-p53 Lys^370me1 antibody (a kind gift from Dr. Shelley Berger) followed by detection with IRDye®680RD goat anti-mouse IgG (LI-COR Biosciences) and IRDye800CW goat anti-rabbit IgG (LI-COR Biosciences) on the Odyssey Imager (LI-COR Biosciences). […] 4–8 h later, cells were treated with 0–25 μM compound for 15 h. […] 24 h later, cells were lysed with 200 μl of MSD Tris Lysis Buffer^TM (Meso Scale Discovery). A MULTI-ARRAY^TM 96-well plate (Meso Scale Discovery, catalog number L15XA-3) was precoated with 2 μg/ml custom-made methyl-p53 antibody (Lampire) in PBS overnight at 4 °C. 150 μl/well MSD Blocking Solution A^TM (final concentration of 3%) was added followed by shaking at room temperature for 1 h. The plate was washed three times with 1× MSD Tris Wash Buffer^TM (Meso Scale Discovery). 0.5 μg of cell lysate in 25 μl/well MSD Tris Lysis Buffer was added, followed by shaking overnight at 4 °C. […] Following a final wash three times with 1× MSD Tris Wash Buffer, 150 μl/well 1× MSD Read Buffer^TM (Meso Scale Discovery) was added, and plates were read on an MSD SECTOR^TM Imager 6000 instrument (Meso Scale Discovery).

hSgK110 = biological target: T12, hSgK110 (Homo sapiens, UniProt P0C264); assay: KINOMEscan; assay type: binding
T12 construct: purchased DiscoverX (KINOMEscan platform)
T12 sequence (P0C264 whole entry): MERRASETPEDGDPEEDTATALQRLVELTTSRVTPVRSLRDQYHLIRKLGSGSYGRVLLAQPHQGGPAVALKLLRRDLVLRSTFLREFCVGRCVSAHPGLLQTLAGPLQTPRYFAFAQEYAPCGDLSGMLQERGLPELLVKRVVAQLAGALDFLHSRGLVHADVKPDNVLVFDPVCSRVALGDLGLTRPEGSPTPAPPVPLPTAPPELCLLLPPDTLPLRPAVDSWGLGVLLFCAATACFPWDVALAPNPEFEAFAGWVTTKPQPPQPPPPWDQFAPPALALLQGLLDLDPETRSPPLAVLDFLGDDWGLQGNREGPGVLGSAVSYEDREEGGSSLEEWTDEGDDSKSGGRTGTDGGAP

hMEK4 = biological target: T13, hMEK4 (Homo sapiens, UniProt P45985); assay: KINOMEscan; assay type: binding
T13 construct: purchased DiscoverX

hRET(V804M) = biological target: T14, hRET(V804M) (Homo sapiens, UniProt P07949, V804M); assay: KINOMEscan; assay type: binding
T14 construct: purchased DiscoverX (KINOMEscan platform)
T14 sequence (P07949 29-1114 V804M): as the sequence (P07949 29-1114) above, with V776M counted along it

hHASPIN = biological target: T15, hHASPIN (Homo sapiens, UniProt Q8TF76); assay: KINOMEscan; assay type: binding
T15 construct: purchased DiscoverX
T15 sequence (Q8TF76 whole entry): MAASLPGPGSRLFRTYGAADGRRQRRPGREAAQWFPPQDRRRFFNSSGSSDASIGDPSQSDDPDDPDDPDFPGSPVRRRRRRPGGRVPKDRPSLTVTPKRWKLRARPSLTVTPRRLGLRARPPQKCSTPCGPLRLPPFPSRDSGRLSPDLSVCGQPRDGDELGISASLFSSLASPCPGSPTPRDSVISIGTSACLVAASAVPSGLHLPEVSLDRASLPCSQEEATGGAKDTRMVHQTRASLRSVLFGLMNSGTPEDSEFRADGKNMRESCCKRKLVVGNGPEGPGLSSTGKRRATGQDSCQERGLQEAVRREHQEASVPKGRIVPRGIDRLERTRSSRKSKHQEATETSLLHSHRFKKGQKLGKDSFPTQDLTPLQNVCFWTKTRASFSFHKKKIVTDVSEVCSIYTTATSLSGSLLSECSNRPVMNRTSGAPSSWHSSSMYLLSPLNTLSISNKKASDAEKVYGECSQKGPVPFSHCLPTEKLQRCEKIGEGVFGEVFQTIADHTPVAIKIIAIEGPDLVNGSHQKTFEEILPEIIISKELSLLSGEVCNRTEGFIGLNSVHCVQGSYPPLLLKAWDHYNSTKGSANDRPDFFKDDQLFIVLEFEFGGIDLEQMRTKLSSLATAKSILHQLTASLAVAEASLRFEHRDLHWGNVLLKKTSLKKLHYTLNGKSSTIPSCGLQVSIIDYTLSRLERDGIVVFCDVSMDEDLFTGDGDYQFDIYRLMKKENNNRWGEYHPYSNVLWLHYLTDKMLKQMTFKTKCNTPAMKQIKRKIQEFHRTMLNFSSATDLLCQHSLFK

hABL1(T315I) = biological target: T16, hABL1(T315I) (Homo sapiens, UniProt P00519, T315I); assay: KINOMEscan; assay type: binding
T16 construct: purchased DiscoverX (KINOMEscan platform)

hVRK2 = biological target: T17, hVRK2 (Homo sapiens, UniProt Q86Y07); assay: KINOMEscan; assay type: binding
T17 construct: purchased DiscoverX

hERBB4 = biological target: T18, hERBB4 (Homo sapiens, UniProt Q15303); assay: KINOMEscan; assay type: binding
T18 construct: purchased DiscoverX
T18 sequence (Q15303 26-1308): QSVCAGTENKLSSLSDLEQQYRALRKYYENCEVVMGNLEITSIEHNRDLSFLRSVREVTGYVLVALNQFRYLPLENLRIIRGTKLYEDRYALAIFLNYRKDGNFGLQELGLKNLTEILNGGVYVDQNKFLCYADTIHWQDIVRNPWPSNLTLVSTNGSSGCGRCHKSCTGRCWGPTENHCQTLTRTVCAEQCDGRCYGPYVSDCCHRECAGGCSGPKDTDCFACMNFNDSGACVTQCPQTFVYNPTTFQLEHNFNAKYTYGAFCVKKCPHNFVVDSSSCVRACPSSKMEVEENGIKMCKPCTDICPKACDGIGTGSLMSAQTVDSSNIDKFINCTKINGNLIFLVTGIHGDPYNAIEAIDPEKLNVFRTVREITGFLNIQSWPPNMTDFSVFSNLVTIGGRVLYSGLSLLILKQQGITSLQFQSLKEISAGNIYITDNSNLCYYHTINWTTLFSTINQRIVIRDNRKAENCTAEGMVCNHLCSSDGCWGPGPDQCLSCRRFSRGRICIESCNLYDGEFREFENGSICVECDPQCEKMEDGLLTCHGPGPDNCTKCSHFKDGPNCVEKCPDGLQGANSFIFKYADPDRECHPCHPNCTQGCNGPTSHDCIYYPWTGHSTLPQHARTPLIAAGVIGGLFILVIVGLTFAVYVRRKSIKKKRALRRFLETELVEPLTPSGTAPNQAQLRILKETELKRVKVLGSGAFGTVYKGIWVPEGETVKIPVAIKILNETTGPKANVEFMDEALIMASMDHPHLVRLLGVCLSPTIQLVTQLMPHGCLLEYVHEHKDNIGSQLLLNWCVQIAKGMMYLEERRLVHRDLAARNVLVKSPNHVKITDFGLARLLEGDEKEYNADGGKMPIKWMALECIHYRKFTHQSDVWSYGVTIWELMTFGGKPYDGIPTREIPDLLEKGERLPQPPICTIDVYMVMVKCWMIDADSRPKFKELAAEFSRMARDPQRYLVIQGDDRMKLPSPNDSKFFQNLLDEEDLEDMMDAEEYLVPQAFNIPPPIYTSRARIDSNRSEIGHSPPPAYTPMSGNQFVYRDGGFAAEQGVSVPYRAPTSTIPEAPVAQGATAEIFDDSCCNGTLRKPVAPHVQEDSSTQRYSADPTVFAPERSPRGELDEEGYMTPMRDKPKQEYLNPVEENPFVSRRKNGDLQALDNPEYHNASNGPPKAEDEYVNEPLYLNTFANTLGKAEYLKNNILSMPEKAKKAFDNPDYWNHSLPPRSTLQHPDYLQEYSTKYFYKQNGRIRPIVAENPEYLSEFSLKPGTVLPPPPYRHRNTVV

hFGFR2 = biological target: T19, hFGFR2 (Homo sapiens, UniProt P21802); assay: KINOMEscan; assay type: binding
T19 construct: purchased DiscoverX

hERK4 = biological target: T20, hERK4 (Homo sapiens, UniProt P31152); assay: KINOMEscan; assay type: binding
T20 construct: purchased DiscoverX

hABL1(pY253F) = biological target: T21, hABL1(pY253F) (Homo sapiens, UniProt P00519, Y253F); assay: KINOMEscan; assay type: binding
T21 construct: purchased DiscoverX (KINOMEscan platform)

hHCK = biological target: T22, hHCK (Homo sapiens, UniProt P08631); assay: KINOMEscan; assay type: binding
T22 construct: purchased DiscoverX
T22 sequence (P08631 whole entry): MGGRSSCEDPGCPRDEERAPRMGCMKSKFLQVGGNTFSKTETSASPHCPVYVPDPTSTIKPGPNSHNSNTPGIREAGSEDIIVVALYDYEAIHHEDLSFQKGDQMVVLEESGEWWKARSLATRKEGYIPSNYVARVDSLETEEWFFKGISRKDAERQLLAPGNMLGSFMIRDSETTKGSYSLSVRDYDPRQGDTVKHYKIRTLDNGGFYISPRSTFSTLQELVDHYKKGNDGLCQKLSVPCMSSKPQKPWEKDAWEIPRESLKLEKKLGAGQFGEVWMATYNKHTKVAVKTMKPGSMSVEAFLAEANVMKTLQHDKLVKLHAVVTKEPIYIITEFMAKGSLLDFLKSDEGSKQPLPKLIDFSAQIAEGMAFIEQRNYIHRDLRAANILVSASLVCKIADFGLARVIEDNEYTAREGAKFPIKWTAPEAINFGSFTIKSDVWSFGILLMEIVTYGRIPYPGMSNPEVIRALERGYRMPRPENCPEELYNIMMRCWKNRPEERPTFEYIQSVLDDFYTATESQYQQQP

T2 sequence (Q9H3Y6 whole entry): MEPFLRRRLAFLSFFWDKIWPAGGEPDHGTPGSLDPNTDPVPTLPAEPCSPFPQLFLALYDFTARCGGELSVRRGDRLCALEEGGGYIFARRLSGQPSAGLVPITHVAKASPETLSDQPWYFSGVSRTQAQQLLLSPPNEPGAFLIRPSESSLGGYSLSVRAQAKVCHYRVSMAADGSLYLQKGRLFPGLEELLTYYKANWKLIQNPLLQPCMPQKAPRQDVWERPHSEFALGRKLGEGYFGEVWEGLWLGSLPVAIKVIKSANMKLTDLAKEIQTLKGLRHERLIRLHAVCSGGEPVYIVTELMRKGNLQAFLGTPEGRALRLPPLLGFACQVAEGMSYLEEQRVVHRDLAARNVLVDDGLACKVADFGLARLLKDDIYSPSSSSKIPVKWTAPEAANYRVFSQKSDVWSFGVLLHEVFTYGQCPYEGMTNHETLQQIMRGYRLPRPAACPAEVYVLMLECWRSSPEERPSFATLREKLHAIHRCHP

Cc1cn(CCN2CCN(c3ccccc3-c3cc(C#N)cc(C(=O)NCCCN4CCCC4)c3)CC2)c2ccccc12 [LLY-507, 3-cyano-5-{2-[4-[2-(3-methylindol-1-yl)ethyl]piperazin-1-yl]-phenyl}-N-[(3-pyrrolidin-1-yl)propyl]benzamide]
IC50 (hCLK2): > 20 µM | IC50 (hSRMS): > 20 µM | IC50 (hMAST1): > 20 µM | IC50 (hRIOK3): > 20 µM | % Effect, Stimulation (hD1): -6.8% | IC50 (hRET): > 20 µM | IC50 (hSLK): > 20 µM | IC50 (hSRPK2): > 20 µM | inhibition at 10 µM (hADORA3): -38.3% | IC50 (hCSNK2A1): > 20 µM | IC50 (hSGK2): > 20 µM | IC50 (hKIT(V559D,T670I)): > 20 µM | IC50 [1]: < 1 µM | IC50 (hSgK110): > 20 µM | IC50 (hMEK4): > 20 µM | IC50 (hRET(V804M)): > 20 µM | IC50 (hHASPIN): > 20 µM | IC50 (hABL1(T315I)): > 20 µM | IC50 (hVRK2): > 20 µM | IC50 (hERBB4): > 20 µM | IC50 (hFGFR2): > 20 µM | IC50 (hERK4): > 20 µM | IC50 (hABL1(pY253F)): > 20 µM | IC50 (hHCK): > 20 µM
